In brackets after ≈: the same amount, converted by molar mass. Several values for one entry are separate records, joined by “and”; a condition that tells them apart may be missing. Equal entries are not always repeated. One block for each molecule: values may come before it.
How the values were obtained:
Test in all cases: ≥ marks a high value that may be exact or a test limit, other limits are often not marked, values filed in µg/mL are converted to µM
[1] = system: Salmonella enterica subsp. enterica serovar Pullorum C79-13
[2] = system: Salmonella enterica subsp. enterica serovar Typhimurium ATCC 14028
[3] = system: Staphylococcus epidermidis ATCC 12228
[4] = system: Pseudomonas aeruginosa ATCC 27853
Escherichia coli K88 = system: Escherichia coli K88
[5] = system: Lacticaseibacillus rhamnosus 1.9021
[6] = system: Salmonella enterica subsp. enterica serovar Choleraesuis CVCC 503
[7] = system: Lacticaseibacillus rhamnosus 1.0936
[8] = system: Escherichia coli ATCC 25922
[9] = system: Lacticaseibacillus rhamnosus 1.0911
[10] = system: Staphylococcus aureus ATCC 29213
[11] = system: Lacticaseibacillus rhamnosus 8014
[12] = system: Staphylococcus aureus ATCC 43300
[13] = system: Escherichia coli O157:H7 CICC 21530
[14] = system: Pseudomonas aeruginosa PAO1
[15] = system: Streptococcus agalactiae BNCC 185941
[16] = system: Staphylococcus aureus ATCC 19636
[17] = system: Staphylococcus aureus ATCC 25923
[18] = system: Pseudomonas aeruginosa ATCC 9027
[19] = system: Klebsiella pneumoniae ST258
Escherichia coli ST131 = system: Escherichia coli ST131
Escherichia coli JM109 = system: Escherichia coli JM109
Escherichia coli BL21 = system: Escherichia coli BL21
[20] = system: Staphylococcus aureus CCRC 12652
Salmonella enterica = system: Salmonella enterica
Pseudomonas aeruginosa = system: Pseudomonas aeruginosa
[21] = system: Bifidobacterium adolescentis
[22] = system: Vibrio parahaemolyticus CCRC 10806
[23] = system: Lactobacillus delbrueckii subsp. bulgaricus
Enterococcus faecium = system: Enterococcus faecium
Citrobacter koseri = system: Citrobacter koseri
[24] = system: Klebsiella pneumoniae CCRC 10694
[25] = system: Staphylococcus aureus CCRC 15211
Staphylococcus xylosus = system: Staphylococcus xylosus
[26] = system: Salmonella typhimurium CCRC 12947
[27] = system: Legionella pneumophila Lens
[28] = system: Candida krusei CGMCC 2.1857
Candida albicans = system: Candida albicans
[29] = system: Candida parapsilosis CGMCC 2.3989
[30] = system: Salmonella enterica subsp. enterica serovar Pullorum ATCC 7913
[31] = system: Candida tropicalis CGMCC 2.1975
Escherichia coli 1005 = system: Escherichia coli 1005
[32] = system: Staphylococcus pseudintermedius
[33] = system: Escherichia coli K12 MG1655
[34] = system: Pseudomonas aeruginosa PA14
Micrococcus luteus A270 = system: Micrococcus luteus A270
[35] = system: Escherichia coli DH5alpha

- MIC [1]: 8 µM (≈ 9.6 µg/mL)
- MIC [2]: 64 µM (≈ 76.8 µg/mL)
- MIC [3]: 128 µM (≈ 154 µg/mL)
- MIC [4]: 64 µM (≈ 76.8 µg/mL)
- MIC (Escherichia coli K88): 16 µM (≈ 19.2 µg/mL)
- MIC [5]: ≥ 32 µM
- MIC [7]: ≥ 128 µM
- MIC [8]: 32 µM and 64 µM
- MIC [9]: 16 µM (≈ 19.2 µg/mL)
- MIC [10]: 128 µM (≈ 154 µg/mL)
- MIC [11]: ≥ 64 µM
- MIC [12]: 64 µM (≈ 76.8 µg/mL)
- MIC [13]: 16 µM (≈ 19.2 µg/mL)
- MIC [14]: 32 µM (≈ 38.4 µg/mL)
- MIC [15]: ≥ 128 µM
Compound: CC(C)C[C@H](NC(=O)CNC(=O)[C@H](CC(C)C)NC(=O)[C@H](CS)NC(=O)[C@H](CC(C)C)NC(=O)CNC(=O)[C@H](CC(C)C)NC(=O)[C@H](CCCCN)NC(=O)[C@@H](N)CCCCN)C(=O)N[C@@H](CCCCN)C(=O)N[C@@H](CCCCN)C(N)=O [KKLGLCLGLKK]
- MIC [6]: ≥ 64 µM

- MIC [16]: 3.74 µM (≈ 6.3 µg/mL)
- MIC [4]: 14.8 µM (≈ 25 µg/mL)
- MIC [8]: 7.42 µM (≈ 12.5 µg/mL)
- MIC [10]: 29.7 µM (≈ 50 µg/mL)
- MIC [17]: > 29.7 µM
- MIC [18]: 14.8 µM (≈ 25 µg/mL)
Compound: CC(C)C[C@H](NC(=O)[C@H](C)NC(=O)[C@H](CCCCN)NC(=O)[C@H](CC(C)C)NC(=O)[C@H](Cc1c[nH]c2ccccc12)NC(=O)[C@H](CCCCN)NC(=O)[C@H](CCCN=C(N)N)NC(=O)[C@H](Cc1c[nH]c2ccccc12)NC(=O)[C@H](CCCCN)NC(=O)[C@@H](N)CCCCN)C(=O)N[C@@H](C)C(=O)N[C@@H](CCCCN)C(=O)N[C@@H](CCCCN)C(=O)O [KKWRKWLKALAKK]

- MIC [19]: 4 µM (≈ 7.19 µg/mL)
- MIC [8]: 2 µM (≈ 3.6 µg/mL)
- MIC (Escherichia coli ST131): 2 µM (≈ 3.6 µg/mL)
Compound: CC(C)C[C@H](NC(=O)[C@H](Cc1c[nH]c2ccccc12)NC(=O)[C@H](CCCCN)NC(=O)[C@H](CC(C)C)NC(=O)[C@H](Cc1c[nH]c2ccccc12)NC(=O)[C@H](CCCCN)NC(=O)[C@H](CCCN=C(N)N)NC(=O)[C@H](Cc1c[nH]c2ccccc12)NC(=O)[C@H](CCCCN)NC(=O)[C@@H](N)CCCCN)C(=O)N[C@@H](C)C(=O)N[C@@H](CCCCN)C(=O)N[C@@H](CCCCN)C(N)=O [KKWRKWLKWLAKK]

- MIC (Escherichia coli JM109): 0.593 µM (≈ 0.999 µg/mL)
- MIC (Escherichia coli BL21): 1.68 µM (≈ 2.83 µg/mL)
- MIC [20]: 3.35 µM (≈ 5.65 µg/mL)
- MIC (Salmonella enterica): 3.35 µM (≈ 5.65 µg/mL)
- MIC (Pseudomonas aeruginosa): 26.8 µM (≈ 45.2 µg/mL)
- MIC [21]: ≥ 75.9 µM
- MIC [23]: ≥ 75.9 µM
- MIC (Enterococcus faecium): ≥ 75.9 µM
- MIC (Citrobacter koseri): 0.839 µM (≈ 1.41 µg/mL)
- MIC [24]: 4.74 µM (≈ 8 µg/mL)
- MIC [25]: 3.35 µM (≈ 5.65 µg/mL)
- MIC (Staphylococcus xylosus): 0.296 µM (≈ 0.5 µg/mL)
- MIC [26]: 2.37 µM (≈ 4 µg/mL)
Compound: CC[C@H](C)[C@H](NC(=O)[C@H](CO)NC(=O)[C@H](CCCCN)NC(=O)[C@H](Cc1c[nH]c2ccccc12)NC(=O)[C@H](CCCCN)NC(=O)[C@@H](N)CC(C)C)C(=O)N[C@H](C(=O)N[C@@H](CO)C(=O)N[C@@H](Cc1c[nH]c2ccccc12)C(=O)N[C@@H](C)C(=O)N[C@@H](CCCCN)C(=O)N[C@@H](CCCCN)C(=O)N[C@H](C(=O)N[C@@H](CC(C)C)C(N)=O)C(C)C)C(C)C [LKWKSIVSWAKKVL]
- MIC [22]: 2.37 µM (≈ 4 µg/mL)

- MIC [27]: 2.44 µM (≈ 6.2 µg/mL)
Compound: CC[C@H](C)[C@H](NC(=O)[C@H](CC(C)C)NC(=O)CNC(=O)[C@H](CCCCN)NC(=O)[C@@H](NC(=O)[C@@H](NC(=O)[C@H](CCC(=O)O)NC(=O)[C@H](Cc1ccccc1)NC(=O)[C@H](Cc1ccccc1)NC(=O)[C@H](CCCCN)NC(=O)[C@H](C)NC(=O)[C@@H](NC(=O)[C@@H](NC(=O)[C@H](CC(=O)O)NC(=O)[C@H](C)NC(=O)[C@@H](N)CCSC)C(C)C)[C@@H](C)CC)[C@@H](C)CC)C(C)C)C(=O)N[C@@H](CC(=O)O)C(=O)N[C@@H](CCC(N)=O)C(=O)N[C@@H](Cc1ccccc1)C(=O)N[C@H](C(=O)N[C@@H](CCC(N)=O)C(=O)N[C@@H](CCCCN)C(=O)O)[C@@H](C)O [MADVIAKFFEIVKGLIDQFTQK]

- MIC [2]: 4 µM (≈ 6.08 µg/mL)
- MIC [3]: 4 µM (≈ 6.08 µg/mL)
- MIC [28]: 2 µM (≈ 3.04 µg/mL)
- MIC (Candida albicans): 1.41 µM (≈ 2.15 µg/mL)
- MIC [10]: 4 µM (≈ 6.08 µg/mL)
- MIC [29]: 4 µM (≈ 6.08 µg/mL)
- MIC [12]: 4 µM (≈ 6.08 µg/mL)
- MIC [30]: 2 µM (≈ 3.04 µg/mL)
- MIC [17]: 4 µM (≈ 6.08 µg/mL)
- MIC [31]: 1 µM (≈ 1.52 µg/mL)
- MIC (Escherichia coli 1005): 4 µM (≈ 6.08 µg/mL)
Compound: CC[C@H](C)[C@H](NC(=O)[C@H](CCCN=C(N)N)NC(=O)[C@@H](NC(=O)[C@@H](NC(=O)[C@@H](NC(=O)[C@H](CCCN=C(N)N)NC(=O)[C@@H](NC(=O)[C@H](CCCN=C(N)N)NC(=O)[C@@H](N)CCCN=C(N)N)[C@@H](C)CC)[C@@H](C)CC)[C@@H](C)CC)[C@@H](C)CC)C(=O)N[C@@H](CCCN=C(N)N)C(=O)N[C@@H](CCCN=C(N)N)C(N)=O [RRIRIIIRIRR]

- MIC [32]: 24.8 µM (≈ 46.3 µg/mL)
- MIC [4]: 17.5 µM (≈ 32.7 µg/mL)
- MIC (Pseudomonas aeruginosa): 24.8 µM (≈ 46.3 µg/mL)
- MIC [10]: 17.5 µM (≈ 32.7 µg/mL)
Compound: CC(=O)N[C@@H](CCCN=C(N)N)C(=O)N[C@@H](CCCN=C(N)N)C(=O)N[C@@H](CCCN=C(N)N)C(=O)N[C@@H](Cc1c[nH]c2ccccc12)C(=O)N[C@@H](CCCN=C(N)N)C(=O)N[C@@H](CCCCN)C(=O)N[C@@H](CCCN=C(N)N)C(=O)N[C@@H](CCCN=C(N)N)C(=O)N[C@@H](Cc1c[nH]c2ccccc12)C(=O)N[C@@H](Cc1c[nH]c2ccccc12)C(=O)N[C@@H](Cc1c[nH]c2ccccc12)C(N)=O [RRRWRKRRWWW]

- MIC [4]: 7.8 µM (≈ 11.2 µg/mL)
- MIC [33]: 7.8 µM (≈ 11.2 µg/mL)
- MIC [10]: 3.9 µM (≈ 5.61 µg/mL)
- MIC [34]: 15.6 µM (≈ 22.5 µg/mL)
- MIC (Micrococcus luteus A270): 1.9 µM (≈ 2.74 µg/mL)
- MIC [35]: 3.9 µM (≈ 5.61 µg/mL)
Compound: CC(C)C[C@H](NC(=O)CNC(=O)[C@@H](NC(=O)[C@H](CC(C)C)NC(=O)[C@H](C)NC(=O)[C@@H](N)C(C)C)[C@@H](C)O)C(=O)N[C@H](C(=O)N[C@H](C(=O)N[C@@H](C)C(=O)N[C@@H](CCC(=O)O)C(=O)N[C@@H](Cc1ccc(O)cc1)C(=O)N[C@@H](Cc1ccccc1)C(=O)N[C@@H](CCCN=C(N)N)C(=O)O)C(C)C)[C@@H](C)O [VALTGLTVAEYFR]

— DBAASP
